The text below walks through data of patent US20110082148A1, “TREATING, PREVENTING OR AMELIORATING A HYPERPROLIFERATIVE DISEASE/DISORDER” (priority 2009, published 2011).

In data set [1] the test system is National Cancer Institute 60 cell line. The data set is described as follows: National Cancer Institute 60 cell line one dose test. In kind it is cell-based. Conditions: NCI 60 cell line, across many cell lines. The protocol: FIG. 1 illustrates a National Cancer Institute 60 cell line one dose mean graph for erdosteine. […] A National Cancer Institute 60 cell line test was performed using erdosteine. FIG. 1 illustrates the effectiveness of the erdosteine at inhibiting cancer cell growth in several cell lines. […] A National Cancer Institute 60 cell line test was performed using cinoxacin. FIG. 2 illustrates the effectiveness of the cinoxacin at inhibiting cancer cell growth in several cell lines is shown.

Another data set has as its system HL60 xenograft. In kind it is in vivo. On the procedure: FIG. 4(b) illustrates the tumor volume growth of HL60 xenograft over time after treatment with cinoxacin in dosages of 100 mg/kg and 300 mg/kg as compared to control sample.
FIGS. 4(a) and (b) show the tumor volume growth of an HL60 xenograft over time after treatment with cinoxacin in different dosages as compared to a control sample. The cinoxacin was obtained from Signma Aldrich (MOL_ID—1), and solubilized in […] and phosphate buffered saline and administered […] to test mice. […] The treatment regimen was implemented as 3 day+3 day, with an ip single injection each day. Tumor volume was measured by ruler. […] The mice were provided a single dose daily for ten consecutive days. […] It is believed that higher dosages could also be used without incurring detrimental effects.

For data set [2], the system named is RPMI-8226-luc human myeloma xenografts. The data set is described as follows: RPMI-8226-luc human myeloma xenografts in NSG mice, survival. In kind it is in vivo, NOD scid gamma (NSG) mice. To be noted: for survival time: controls all died before 20 days. An excerpt:
FIG. 5(a) illustrates the photons/sec/cm^2×10^−6 present over time in RPMI-8226-luc human myeloma xenografts in NSG mice.
FIG. 5(b) illustrates the percentage of male and female mice survival over time when provided varying dosage amounts of cinoxacin as compared to a control sample.
FIG. 5(b) illustrates the survival percentage of male and female mice when treated with various dosages of cinoxacin for a period of 10 to 40 days. FIGS. 5(a) and (b) display that the controls all died before 20 days had passed. The females died around 25 days; however, all the males survived for 40 days when treatment was stopped. […] By the time the drug was administered, the concentration of myeloma cells in female mice had reached about 9×10^6, which appears to be beyond repair.
Background: A xenograft is tissue or cells of one species grown in another, often human tumour cells in immunodeficient mice.

A short description of data set [3]: Administration to mice, adverse side effects. The class given is in vivo. To be noted: from about 25 mg/kg to about 15 mg/kg. The text has this:
However, in any given case, the amount of the compound administered will depend on such factors as the solubility of the active component, the formulation used, subject condition (such as weight), and/or the route of administration.

In the case of `CCn1nc(C(=O)O)c(=O)c2cc3c(cc21)OCO3` [cinoxacin], in data set [1], the “cell growth compared with control specimen” value is listed as “lower than in a control specimen”. For the same molecule, the tumor volume increase result in the data set on HL60 xenograft (FIG. 4(a), 100 mg/kg compared to 25 mg/kg and 50 mg/kg, 3 day+3 day, single injection each day) is on record as “slower tumor volume increase”. Further, the “growth of Leukemic cells (tumor volume growth)” value in the data set on HL60 xenograft (FIG. 4(b), 100 mg/kg and 300 mg/kg vs control, single dose daily for ten consecutive days, particularly at 200 mg/kg) is given as “substantial slowing down of the growth of Leukemic cells”. In addition, the survival time result in data set [2] (female mice treated with cinoxacin) is reported as “around 25 days”; in data set [2] (male mice treated with cinoxacin, treatment stopped at 40 days) it was no less than 40 days. The “survival compared to female mice and controls” value in data set [2] (male mice, 1500 mg/kg/day) is “survival was prolonged”. For the same molecule, in data set [3], the adverse side effects result was “without adverse side effects”.

For `O=C(O)CSCC(=O)NC1CCSC1=O` (stereo not drawn) [erdosteine], in data set [1], the “cell growth compared with control specimen” value is on record as “lower than in a control specimen”. For the same molecule, the adverse side effects entry in data set [3] is on record as “without adverse side effects”.
